# “And” between values parts separate entries of the source, which are not always exact repeats. Identical values can stand only once. Like-named read-outs stand apart in the source and are kept apart here.
# Test system: mRNA translation (protein synthesis)
# Test: In vitro translation in pure cell-free system (PURExpress, Lumio labelling)
# Assay type: biochemical
# Experimental: Fig 5 Permissive ppGpp-mediated inhibition of mRNA translation. (A) Scheme of the translating 70S complex. (B) In vitro translation of mTufA and mInfA derivatives harboring a coding sequence for the Lumio labelling system (Experimental conditions and analysis). […] Synthetized proteins were fluorescently labelled and resolved by 20% SDS-PAGE. The resulting images were analyzed by pixel densitometry using ImageJ [37] to estimate translation efficiencies (TEs). […] (D) Comparison of inhibitory constants for both mRNAs as measured during 30S IC formation (white) or overall translation efficiency (gray). Mean and standard deviations from three measurements are plotted (S1 Data). GTP, guanosine triphosphate; mInfA, InfA mRNA; mTufA, TufA mRNA; TE, translation efficiency.
# In order to visualize overall protein synthesis, we used a coupled transcription-translation cell-free system. Reactions were carried out in 10 μL of the purified components from the PURExpress In Vitro Protein Synthesis Kit (E6800S/L, NEB, Ipswich, Massachusetts) with the corresponding templates. These reactions were incubated at 37°C for 2 hours. […] After incubation, sample processing and fluorescent labelling were carried out as described by the Lumio Green Detection Kit (LC6090, ThermoScientific, Waltham, Massachusetts) for in vitro reactions. Finally, 20 μL of labelled samples were loaded into 20% SDS-PAGE gels and visualized under a Blue-light LED transilluminator with orange filter (Cleaver Scientific LTD, Warwickshire, UK). Gel quantification was performed by pixel densitometry analysis using ImageJ software.
smiles,measurement,setting,value
Nc1nc2c(ncn2[C@@H]2O[C@H](COP(=O)(O)OP(=O)(O)O)[C@@H](OP(=O)(O)OP(=O)(O)O)[C@H]2O)c(=O)[nH]1 [ppGpp],P.D. Average,"mInfA, Log [ppGpp] 1.00",2.85 a.u.x10^4
same,P.D. Replicates (a.u.x10^4),"mInfA, Log [ppGpp] 1.00",2.78 a.u.x10^4 and 2.92 a.u.x10^4 and 2.86 a.u.x10^4
same,P.D. Average,"mInfA, Log [ppGpp] 2.40",2.28 a.u.x10^4
same,P.D. Replicates (a.u.x10^4),"mInfA, Log [ppGpp] 2.40",2.16 a.u.x10^4 and 2.34 a.u.x10^4 and 2.33 a.u.x10^4
same,P.D. Average,"mInfA, Log [ppGpp] 2.70",1.67 a.u.x10^4
same,P.D. Replicates (a.u.x10^4),"mInfA, Log [ppGpp] 2.70",1.54 a.u.x10^4 and 1.80 a.u.x10^4 and 1.68 a.u.x10^4
same,P.D. Average,"mInfA, Log [ppGpp] 3.00",0.00 a.u.x10^4
same,P.D. Replicates (a.u.x10^4),"mInfA, Log [ppGpp] 3.00",0.00 a.u.x10^4
same,P.D. Average,"mInfA, Log [ppGpp] 3.30",0.00 a.u.x10^4
same,P.D. Replicates (a.u.x10^4),"mInfA, Log [ppGpp] 3.30",0.00 a.u.x10^4
same,P.D. Average,"mInfA, Log [ppGpp] 3.60",0.00 a.u.x10^4
same,P.D. Replicates (a.u.x10^4),"mInfA, Log [ppGpp] 3.60",0.00 a.u.x10^4
same,Ki,"mRNA mInfA, read-out: Translation Efficiency Ki (μM), replicates",0.816 µM and 0.72 µM and 0.838 µM
same,Ki,"mRNA mInfA, read-out: Translation Efficiency Ki Average",0.791 µM
same,Ki,"mRNA mTufA, read-out: Translation Efficiency Ki (μM), replicates",2.23 µM and 2.32 µM and 2.09 µM
same,Ki,"mRNA mTufA, read-out: Translation Efficiency Ki Average",2.21 µM
same,P.D. Average,"mTufA, Log [ppGpp] 1.00",6.41 a.u.x10^4
same,P.D. Replicates (a.u.x10^4),"mTufA, Log [ppGpp] 1.00",6.33 a.u.x10^4 and 6.50 a.u.x10^4 and 6.41 a.u.x10^4
same,P.D. Average,"mTufA, Log [ppGpp] 2.40",5.17 a.u.x10^4
same,P.D. Replicates (a.u.x10^4),"mTufA, Log [ppGpp] 2.40",5.12 a.u.x10^4 and 5.25 a.u.x10^4 and 5.15 a.u.x10^4
same,P.D. Average,"mTufA, Log [ppGpp] 2.70",4.76 a.u.x10^4
same,P.D. Replicates (a.u.x10^4),"mTufA, Log [ppGpp] 2.70",4.72 a.u.x10^4 and 4.86 a.u.x10^4 and 4.70 a.u.x10^4
same,P.D. Average,"mTufA, Log [ppGpp] 3.00",3.38 a.u.x10^4
same,P.D. Replicates (a.u.x10^4),"mTufA, Log [ppGpp] 3.00",3.31 a.u.x10^4 and 3.47 a.u.x10^4 and 3.35 a.u.x10^4
same,P.D. Average,"mTufA, Log [ppGpp] 3.30",2.72 a.u.x10^4
same,P.D. Replicates (a.u.x10^4),"mTufA, Log [ppGpp] 3.30",2.68 a.u.x10^4 and 2.81 a.u.x10^4 and 2.66 a.u.x10^4
same,P.D. Average,"mTufA, Log [ppGpp] 3.60",1.21 a.u.x10^4
same,P.D. Replicates (a.u.x10^4),"mTufA, Log [ppGpp] 3.60",1.18 a.u.x10^4 and 1.24 a.u.x10^4 and 1.21 a.u.x10^4
